Results as given in PMC5443537, “The human asparaginase enzyme (ASPG) inhibits growth in leukemic cells” (PLoS ONE, 2017).

T1: GST-ASPG (human ASPG, 60 kDa Lysophospholipase) (Homo sapiens, UniProt Q86U10)
T1 construct: full-length cDNA in pGEX-4T3, N-terminal GST tag kept, E. coli BL21, glutathione Sepharose
T1 sequence (Q86U10 1-573): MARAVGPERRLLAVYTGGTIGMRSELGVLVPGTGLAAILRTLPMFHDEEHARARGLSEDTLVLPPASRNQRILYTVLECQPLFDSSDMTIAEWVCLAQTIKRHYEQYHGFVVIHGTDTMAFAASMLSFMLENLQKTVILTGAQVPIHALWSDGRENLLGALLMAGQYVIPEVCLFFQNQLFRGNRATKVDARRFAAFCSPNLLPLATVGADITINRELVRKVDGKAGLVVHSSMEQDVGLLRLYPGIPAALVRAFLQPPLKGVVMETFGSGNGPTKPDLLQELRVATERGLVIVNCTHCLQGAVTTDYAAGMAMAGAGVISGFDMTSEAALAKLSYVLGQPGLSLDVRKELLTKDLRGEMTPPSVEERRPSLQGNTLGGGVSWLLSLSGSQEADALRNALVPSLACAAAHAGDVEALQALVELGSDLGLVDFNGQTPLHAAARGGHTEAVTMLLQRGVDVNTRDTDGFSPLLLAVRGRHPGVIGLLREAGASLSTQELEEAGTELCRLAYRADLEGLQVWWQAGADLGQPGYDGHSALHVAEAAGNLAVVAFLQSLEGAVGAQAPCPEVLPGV


Legend:
[1] = biological target: T1, GST-ASPG (human ASPG, 60 kDa Lysophospholipase); test: Nessler ammonia assay, steady-state inhibition kinetics; type: biochemical
[2] = biological target: T1, GST-ASPG (human ASPG, 60 kDa Lysophospholipase); test: PAF acetylhydrolase assay kit (2-thio PAF, DTNB, […] nm); type: biochemical; settings: 200 µM 2-thio-PAF, Tris/HCl pH 7.2, 10 min pre-incubation
[3] = substrate: NC(=O)C[C@H](N)C(=O)O; test: Nessler ammonia assay, Hill fit; type: biochemical, Homo sapiens; settings: Tris/HCl pH 8.6, 37 °C, 30 min, 3-39 mM substrate, sigmoidal kinetics, Hill slope 6.9

| Ki [1] [mM] | Molecule | residual PAF-AH activity at 40 and 200 mM [2] | K0.5 [3] [mM] |
| --- | --- | --- | --- |
| 71 | NC(=O)C[C@@H](N)C(=O)O [D-asparagine] | PAF-AH activity of GST-ASPG was also significantly inhibited by D-asparagine |  |
|  | GST-ASPG (human ASPG, 60 kDa Lysophospholipase) (Homo sapiens) (protein, full-length cDNA in pGEX-4T3, N-terminal GST tag kept, E. coli BL21, glutathione Sepharose) MARAVGPERRLLAVYTGGTIGMRSELGVLVPGTGLAAILRTLPMFHDEEHARARGLSEDTLVLPPASRNQRILYTVLECQPLFDSSDMTIAEWVCLAQTIKRHYEQYHGFVVIHGTDTMAFAASMLSFMLENLQKTVILTGAQVPIHALWSDGRENLLGALLMAGQYVIPEVCLFFQNQLFRGNRATKVDARRFAAFCSPNLLPLATVGADITINRELVRKVDGKAGLVVHSSMEQDVGLLRLYPGIPAALVRAFLQPPLKGVVMETFGSGNGPTKPDLLQELRVATERGLVIVNCTHCLQGAVTTDYAAGMAMAGAGVISGFDMTSEAALAKLSYVLGQPGLSLDVRKELLTKDLRGEMTPPSVEERRPSLQGNTLGGGVSWLLSLSGSQEADALRNALVPSLACAAAHAGDVEALQALVELGSDLGLVDFNGQTPLHAAARGGHTEAVTMLLQRGVDVNTRDTDGFSPLLLAVRGRHPGVIGLLREAGASLSTQELEEAGTELCRLAYRADLEGLQVWWQAGADLGQPGYDGHSALHVAEAAGNLAVVAFLQSLEGAVGAQAPCPEVLPGV |  | 13 |
